According to publication PMC10892288, “Early Stage Preclinical Formulation Strategies to Alter the Pharmacokinetic Profile of Two Small Molecule Therapeutics” (Pharmaceuticals, 2024):

How the values were obtained:
[1] = Water solubility (physiochemical properties); assay type: physicochemical
[2] = Permeability (physiochemical properties); assay type: in vitro ADME
[3] = Log P (physiochemical properties); assay type: physicochemical
[4] = Vehicle screening for solution or suspension formulations; assay type: physicochemical; conditions: 100% PEG400
Experimental: Based on the target concentration, G7883 was screened at 3.3 mg/mL in three different vehicles of 100%PEG400, 10%DMSO in 90%PEG400, and 20%DMSO in 80%PEG400 to generate a stable solution. […] A total of 50% DMSO is the maximum amount compatible with the iPRECIO pump system. Based on the target concentration, G6893 was screened at 5 mg/mL in four different vehicles as follows: 100% PEG400, 20% DMSO in 80% PEG400, 20% DMA and 40% PG in 40% PEG400, and 10% EtOH and 20% HPbCD in 70% water at pH 4.5. G6893 achieved a solution at the target concentration of 5 mg/mL in 100% PEG400 and maintained a solution without precipitation after dilution in PBS buffer.
G7883 was screened in different oil vehicles including corn, coconut, paraffin, soybean, and sunflower oil.

[5] = Mouse IV infusion of G6893 by iPRECIO pump; assay type: in vivo, female C57BL-6 mice; conditions: 0.5 mg/kg/h, 2.5 mg/mL in 100% PEG400, over 96 h
Text: This is often a concern for molecules in early drug discovery stages. Various formulation and delivery strategies have been devised to modify the systemic PK profiles of drug molecules, encompassing nanoparticles, microparticles, lipid and polymer conjugation, implanted infusion pump device technologies, and subcutaneous depots. Here, we examined two strategies aimed at maintaining the drug concentration at a designed target concentration for the maximum duration potentially needed for proof of concept studies. The initial approach involved using an implantable device, the iPRECIO pump that allows for a controlled and sustained infusion, as opposed to a typical bolus IV injection. The infusion pump strategies can be a promising tool to achieve the desired delivery profile of a compound, given the solubility requirements based on the intended target release and PK profile. […]
All plasma and cell media concentrations of G7883 and G6893 were determined using liquid chromatography–tandem mass spectrometry after protein precipitation with acetonitrile and injection of the supernatant onto the column (Waters ACQUITY UPLC BEH C18 1.7 μm, 2.1 × 50 mm for G7883 and G6893). […] The lower limit of quantitation of the assay was 5.1 ng/mL, and the dilution quality control concentration was set at 10 ng/mL with acceptance criteria for accuracy and precision of 25%.

[6] = pKa (physiochemical properties); assay type: physicochemical
Text: Table 1 Physiochemical properties of […] and […]. | column: […]; […]

[7] = target: HPK1 (Homo sapiens, UniProt Q92918); assay: Potency (IC50) of HPK1 inhibitor
[8] = Mouse PK of G6893, PO in MCT vehicle; assay type: in vivo, female C57BL-6 mice; conditions: female, C57BL-6, plasma, 30 mg/kg, PO 30 mpk, MCT vehicle pH 2.5, mouse
Experimental: A total of 0.6% w/v Methylcellulose, 0.2% w/v Tween 80 in water (MCT) was prepared by slowly adding Methylcellulose (Methylocel A15 LV; CAS 9004-67-5, Part ID: 64605-500G-F 27.5-31.5% Methoxyl basis, Sigma-Aldrich, St. Louis, MO, USA) in small portions to prevent clumping while stirring into water at 70–80 °C. Once a homogeneous suspension formed, Tween 80 (Polysorbate 80; CAS#9005-65-6 (Polyoxyethylene (20) Sorbitan Monooleate; Tween 80) Part ID: PO138, Spectrum Chemical, New Brunswick, NJ, USA) was added and stirred until fully dissolved. Vehicle was filtered through 0.22 µm PES (Corning REF no. 431098) prior to adding to the compound for dosing. Respective compound was added based on the target concentration to the MCT vehicle and stirred at 35 °C until the power was well-dispersed. Formulations were homogenized through a polytron homogenizer and then sonicated in a water bath sonicator until a homogeneous suspension was achieved.
The pharmacokinetics of G7883 were determined in female CD-1 mice obtained from Charles River Laboratories (Hollister, CA, USA) with a body weight ranging from 20 to 25 g. The pharmacokinetics of G6893 were determined in female C57BL-6 mice (Lingchang/Vital River Laboratory Animal Co., Ltd., Shanghai/Beijing, China) with a body weight ranging from 20 to 35 g. Three mice were given an oral dose of G7883 formulated in 0.6% Methylcellulose, 0.2% Tween80 in water (MCT) at 25 mg/kg and 250 mg/kg with a dosing volume of 10 mL/kg. Food and water were available ad libitum to the animals. Three mice were given an oral dose of G6893 formulated in 0.6% methylcellulose; 0.2% Tween80 in water with pH adjusted to 2.5 at 30 mg/kg and a dose volume of 5 mL/kg. For both compounds, G7883 and G6893, 15 µL of blood was collected serially at 0. 25, 0.5, 1, 2, 4, 6, 8, and 24 h post-dose and diluted in 60 µL of 1.7 mg/mL potassium K2EDTA water. The frozen blood samples were stored at −70 °C or lower until analysis.
All plasma and cell media concentrations of G7883 and G6893 were determined using liquid chromatography–tandem mass spectrometry after protein precipitation with acetonitrile and injection of the supernatant onto the column (Waters ACQUITY UPLC BEH C18 1.7 μm, 2.1 × 50 mm for G7883 and G6893). The aqueous mobile phase was 0.1% formic acid, 2 mM ammonium formate in water/acetonitrile (v:v, 95:5), and the organic mobile phase was 0.1% formic acid, 2 mM ammonium formate in acetonitrile/water (v:v, 95:5). An AB Sciex API 4000 Triple Quad instrument was used for detecting G7883 and G6893 (Figure S2). The electrospray ionization source in both columns was operated in the positive ion and multiple reaction monitoring (MRM) detection modes. The MRM transitions for G7883 and G6893 were m/z 462.2 (Q1) and 253.10 (Q3) and m/z 454.2 (Q1) and 325.9 (Q3), respectively. The dynamic range of both assays was 0.50–50.0 ng/mL, and the total run time was 1.6 min. The lower limit of quantitation of the assay was […], and the dilution quality control concentration was set at 10 ng/mL with acceptance criteria for accuracy and precision of 25%.

Sequence of HPK1 (Q92918 whole entry, species assumed): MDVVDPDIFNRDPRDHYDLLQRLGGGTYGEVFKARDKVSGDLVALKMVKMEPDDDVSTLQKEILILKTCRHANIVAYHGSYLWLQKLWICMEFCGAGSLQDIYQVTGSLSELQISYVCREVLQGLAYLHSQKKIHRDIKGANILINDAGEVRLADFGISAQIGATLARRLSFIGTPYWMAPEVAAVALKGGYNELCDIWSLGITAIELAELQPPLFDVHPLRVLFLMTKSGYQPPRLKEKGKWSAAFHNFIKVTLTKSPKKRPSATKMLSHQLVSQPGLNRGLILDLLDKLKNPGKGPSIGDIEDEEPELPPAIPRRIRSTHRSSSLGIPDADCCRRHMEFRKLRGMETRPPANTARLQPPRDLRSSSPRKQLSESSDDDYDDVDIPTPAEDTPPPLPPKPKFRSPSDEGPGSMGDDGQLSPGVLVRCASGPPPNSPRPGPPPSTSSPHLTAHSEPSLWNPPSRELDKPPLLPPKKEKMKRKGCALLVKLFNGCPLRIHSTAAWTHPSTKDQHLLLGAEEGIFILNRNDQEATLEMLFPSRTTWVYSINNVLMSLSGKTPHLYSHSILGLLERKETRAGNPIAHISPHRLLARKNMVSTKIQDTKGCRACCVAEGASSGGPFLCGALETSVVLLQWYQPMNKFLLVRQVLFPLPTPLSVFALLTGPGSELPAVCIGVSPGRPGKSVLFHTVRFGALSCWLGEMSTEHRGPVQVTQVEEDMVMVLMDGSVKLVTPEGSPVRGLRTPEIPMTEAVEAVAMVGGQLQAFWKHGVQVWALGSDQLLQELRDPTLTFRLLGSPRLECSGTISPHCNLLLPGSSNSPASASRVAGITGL

solubility (in words) [1]: low solubility
solubility ([1]; water): < 1 µg/mL
permeability (in words) [2]: high permeability
Papp ([2]; not told): 15 ×10⁻⁶ cm/s
logP [3]: 2.69
concentration at which a solution was achieved [4]: ≥ 5 mg/mL
pKa [6]: 2.53
IC50 [7]: 560 nM
Cmax ([8]; mean ± SD): 3.8 ± 1.68 µM
Tmax ([8]; mean ± SD): 40 ± 17.3 min
bioavailability ([8]; mean ± SD): 45.5 ± 14%
half-life ([8]; mean ± SD): 184 ± 115 min
AUC(0-t) ([8]; read-out: AUC0 to 8): 19.5 µM·h
Structure (SMILES): Cc1c(-c2cc3cc(NC(=O)O[C@H]4COC[C@@H]4C)ncc3c(N)c2F)cnc2c1NCCO2 (racemic) [G6893, [rac-(3R,4S)-4-methyltetra hydrofuran-3-yl]N-[8-amino-7-fluoro-6-(8-methyl-2,3-dihydro-1H-pyrido[2,3-b][1,4]oxazin-7-yl)-3-isoquinolyl]carbamate]
plasma concentration relative to target concentration (IC50) [5]: successfully maintained the target concentration profile
